Data reported in ChEMBL document CHEMBL6127132, “Design, Synthesis, and Biological Evaluation of Novel Diaminopyrimidine Macrocycles as Fourth Generation Reversible EGFR Inhibitors That Overcome Clinical Resistance to Osimertinib Mediated by C797S Mutation” (J Med Chem, 2024).
pIC50: −log10 of the molar value.

How the values were obtained:
[1] = system: BaF3; test: cells; details: Mus musculus, BaF3, 72 h
[2] = system: A-431; test: cells; details: Homo sapiens, A-431, 72 h
[3] = system: BaF3; test: cells; details: Mus musculus, BaF3, 72 h; remark: listed apart in the source
[4] = cells; details: Homo sapiens, PC9-OR, 72 h
[5] = Antiproliferative activity against mouse BaF3 cells assessed as inhibition of cell proliferation incubated for 72 hrs by CCK-8 assay; assay type: toxicity, cell-based
[6] = target: Epidermal growth factor receptor (Homo sapiens, UniProt P00533, L858R/T790M); test: Inhibition of recombinant N-terminal GST-tagged human EGFR T790M/L858R mutant (696 to end residues) extracted from baculovirus infect Sf21 insect cells incubated for 1 hrs by spectrophotometric analysis
Chain of Epidermal growth factor receptor (Homo sapiens, UniProt P00533, L858R/T790M) (P00533 25-1210 T790M/L858R limits assumed): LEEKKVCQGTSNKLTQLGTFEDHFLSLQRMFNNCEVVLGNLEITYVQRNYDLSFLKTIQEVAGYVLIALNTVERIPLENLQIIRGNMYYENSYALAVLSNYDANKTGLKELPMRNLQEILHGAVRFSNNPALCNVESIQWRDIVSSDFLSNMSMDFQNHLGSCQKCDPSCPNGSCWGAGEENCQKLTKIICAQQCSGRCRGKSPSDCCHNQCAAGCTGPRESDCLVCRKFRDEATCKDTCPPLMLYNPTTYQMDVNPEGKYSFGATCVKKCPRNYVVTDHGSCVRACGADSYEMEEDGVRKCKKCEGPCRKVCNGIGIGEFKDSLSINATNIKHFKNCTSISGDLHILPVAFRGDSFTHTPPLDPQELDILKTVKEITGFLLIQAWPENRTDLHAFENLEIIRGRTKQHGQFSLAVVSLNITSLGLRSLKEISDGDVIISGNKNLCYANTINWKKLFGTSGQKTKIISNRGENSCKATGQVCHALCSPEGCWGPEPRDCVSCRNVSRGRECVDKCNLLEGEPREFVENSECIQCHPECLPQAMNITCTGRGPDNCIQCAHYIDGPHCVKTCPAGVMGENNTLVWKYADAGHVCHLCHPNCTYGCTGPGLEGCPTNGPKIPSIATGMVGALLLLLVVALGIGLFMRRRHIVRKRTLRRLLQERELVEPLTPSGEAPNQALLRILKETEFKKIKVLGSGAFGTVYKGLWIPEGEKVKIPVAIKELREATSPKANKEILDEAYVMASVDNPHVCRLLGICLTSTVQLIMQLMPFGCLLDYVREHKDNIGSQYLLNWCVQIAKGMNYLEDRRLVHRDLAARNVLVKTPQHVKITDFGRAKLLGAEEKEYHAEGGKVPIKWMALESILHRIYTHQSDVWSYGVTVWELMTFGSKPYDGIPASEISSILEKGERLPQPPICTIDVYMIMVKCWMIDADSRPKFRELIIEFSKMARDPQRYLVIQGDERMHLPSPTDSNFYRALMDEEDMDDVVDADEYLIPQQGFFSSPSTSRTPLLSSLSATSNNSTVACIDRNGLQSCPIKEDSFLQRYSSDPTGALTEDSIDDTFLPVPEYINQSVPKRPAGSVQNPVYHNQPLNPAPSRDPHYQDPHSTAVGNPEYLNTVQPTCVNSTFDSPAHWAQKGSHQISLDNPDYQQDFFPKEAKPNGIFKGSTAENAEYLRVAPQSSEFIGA

[7] = target: Epidermal growth factor receptor (Homo sapiens, UniProt P00533, C797S/EX19DEL/T790M); test: Inhibition of recombinant N-terminal GST-tagged human EGFR 19del/T790M/C797S mutant (668 to end residues) extracted from Sf9 insect cells incubated for 1 hrs by spectrophotometric analysis; assay type: cell-free
Chain of Epidermal growth factor receptor (Homo sapiens, UniProt P00533, C797S/EX19DEL/T790M) (P00533 whole entry, looked up, stated change not applied, the tested form may be a part): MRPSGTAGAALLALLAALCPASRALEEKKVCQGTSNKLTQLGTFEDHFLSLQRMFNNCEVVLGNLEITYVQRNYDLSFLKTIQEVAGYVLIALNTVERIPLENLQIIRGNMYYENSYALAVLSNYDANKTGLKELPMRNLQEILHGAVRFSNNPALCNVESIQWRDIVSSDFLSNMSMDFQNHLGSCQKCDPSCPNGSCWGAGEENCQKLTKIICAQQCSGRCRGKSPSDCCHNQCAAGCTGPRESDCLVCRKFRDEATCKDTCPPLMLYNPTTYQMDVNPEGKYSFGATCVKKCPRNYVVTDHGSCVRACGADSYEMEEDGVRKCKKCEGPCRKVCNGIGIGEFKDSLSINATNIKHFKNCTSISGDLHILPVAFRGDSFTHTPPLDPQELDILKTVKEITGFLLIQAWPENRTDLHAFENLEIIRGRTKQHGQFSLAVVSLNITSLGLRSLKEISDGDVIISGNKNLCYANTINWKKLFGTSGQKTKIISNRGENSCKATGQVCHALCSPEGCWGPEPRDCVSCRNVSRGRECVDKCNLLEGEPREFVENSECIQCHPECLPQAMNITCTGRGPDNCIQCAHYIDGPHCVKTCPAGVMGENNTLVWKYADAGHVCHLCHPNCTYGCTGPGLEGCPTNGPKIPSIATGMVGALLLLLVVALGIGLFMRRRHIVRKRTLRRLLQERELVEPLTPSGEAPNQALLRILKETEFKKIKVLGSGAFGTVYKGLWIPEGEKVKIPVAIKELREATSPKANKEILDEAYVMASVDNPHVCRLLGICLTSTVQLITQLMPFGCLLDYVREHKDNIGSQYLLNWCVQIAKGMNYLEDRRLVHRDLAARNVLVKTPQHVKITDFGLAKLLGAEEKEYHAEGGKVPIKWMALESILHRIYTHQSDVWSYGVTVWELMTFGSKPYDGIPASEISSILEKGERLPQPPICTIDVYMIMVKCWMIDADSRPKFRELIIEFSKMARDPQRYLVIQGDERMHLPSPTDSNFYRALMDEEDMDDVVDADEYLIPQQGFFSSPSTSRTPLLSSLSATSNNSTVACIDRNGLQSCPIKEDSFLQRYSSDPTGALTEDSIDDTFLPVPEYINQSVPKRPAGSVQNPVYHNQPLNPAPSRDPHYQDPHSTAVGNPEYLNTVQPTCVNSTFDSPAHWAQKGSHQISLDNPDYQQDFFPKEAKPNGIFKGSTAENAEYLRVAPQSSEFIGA

[8] = target: Epidermal growth factor receptor (Homo sapiens, UniProt P00533); test: Inhibition of recombinant wildtype N-terminal GST-tagged human EGFR kinase domain (696 to end residues) extracted from baculovirus infect Sf21 insect cells incubated for 1 hrs by spectrophotometric analysis
Chain of Epidermal growth factor receptor (Homo sapiens, UniProt P00533) (P00533 whole entry, the tested form may be a part): as the sequence (P00533 whole entry, looked up, stated change not applied, the tested form may be a part) above

[9] = target: Epidermal growth factor receptor (Homo sapiens, UniProt P00533, C797S/L858R/T790M); test: Inhibition of recombinant C-terminal His-tagged/N-terminal GST-tagged human EGFR T790M/C797S/L858R mutant (668 to 1210 residues) extracted from baculovirus infected Sf9 insect cells incubated for 1 hrs by spectrophotometric analysis
Chain of Epidermal growth factor receptor (Homo sapiens, UniProt P00533, C797S/L858R/T790M) (P00533 25-1210 T790M/C797S/L858R limits assumed): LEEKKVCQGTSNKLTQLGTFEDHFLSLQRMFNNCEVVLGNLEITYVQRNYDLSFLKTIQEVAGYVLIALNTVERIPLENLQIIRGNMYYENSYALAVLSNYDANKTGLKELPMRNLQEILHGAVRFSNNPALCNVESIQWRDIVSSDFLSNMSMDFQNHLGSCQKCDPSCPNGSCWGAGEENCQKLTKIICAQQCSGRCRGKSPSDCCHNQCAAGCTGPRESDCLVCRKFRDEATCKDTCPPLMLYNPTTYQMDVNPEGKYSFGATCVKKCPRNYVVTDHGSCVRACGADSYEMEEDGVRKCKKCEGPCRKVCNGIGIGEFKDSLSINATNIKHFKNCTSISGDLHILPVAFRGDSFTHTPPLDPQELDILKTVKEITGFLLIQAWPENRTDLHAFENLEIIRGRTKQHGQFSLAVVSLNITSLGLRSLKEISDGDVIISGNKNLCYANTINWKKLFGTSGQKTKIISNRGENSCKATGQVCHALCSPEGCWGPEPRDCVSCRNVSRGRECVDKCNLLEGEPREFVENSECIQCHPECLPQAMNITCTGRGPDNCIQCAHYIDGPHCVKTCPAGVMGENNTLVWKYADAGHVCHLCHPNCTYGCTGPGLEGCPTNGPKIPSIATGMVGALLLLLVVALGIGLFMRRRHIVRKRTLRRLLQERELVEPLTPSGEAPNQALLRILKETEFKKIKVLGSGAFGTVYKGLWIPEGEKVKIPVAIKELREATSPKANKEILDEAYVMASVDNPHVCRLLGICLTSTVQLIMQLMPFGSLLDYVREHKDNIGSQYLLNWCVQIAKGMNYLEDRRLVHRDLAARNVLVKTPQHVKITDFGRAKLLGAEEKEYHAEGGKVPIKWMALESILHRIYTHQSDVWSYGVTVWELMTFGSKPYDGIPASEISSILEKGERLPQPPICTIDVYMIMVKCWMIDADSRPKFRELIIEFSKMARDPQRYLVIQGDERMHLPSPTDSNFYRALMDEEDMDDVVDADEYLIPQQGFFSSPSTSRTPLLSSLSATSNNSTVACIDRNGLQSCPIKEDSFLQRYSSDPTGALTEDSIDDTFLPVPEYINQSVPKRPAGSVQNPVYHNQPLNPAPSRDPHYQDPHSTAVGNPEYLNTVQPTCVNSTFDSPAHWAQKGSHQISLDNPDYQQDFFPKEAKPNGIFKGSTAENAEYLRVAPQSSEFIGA

Structure (SMILES)	pIC50 [1]	pIC50 [2]	pIC50 [3]	pIC50 [4]	IC50 at 72 h [5] [nM]	pIC50 [6]	pIC50 [7]	pIC50 [8]	pIC50 [9]
C=CC(=O)Nc1cc(Nc2nccc(-c3cn(C)c4ccccc34)n2)c(OC)cc1N(C)CCN(C)C [OSIMERTINIB]	5.75	[…]	5.81	5.58	–	–	–	–	–
COc1cc(N(C)CCN(C)C)c2cc1Nc1nccc(n1)-c1cnn(c1)CCCCC(=O)N2	–	–	–	–	–	< 6.00	< 6.00	< 6.00	–
COc1cc(N(C)CCN(C)C)c2cc1Nc1nccc(n1)-c1cn(c3cc(P(C)(C)=O)ccc13)CCCCC(=O)N2	–	–	–	–	–	< 6.00	< 6.00	< 6.00	–
COc1cc(N(C)CCN(C)C)c2cc1Nc1ncc(C(=O)OC(C)C)c(n1)Nc1ccc(cc1P(C)(C)=O)OCCCCC(=O)N2	–	–	–	–	–	< 6.00	< 6.00	< 6.00	< 6.00
COc1cc(N(C)CCN(C)C)c2cc1Nc1nccc(n1)-c1cc(C#N)n(c1)CCCCC(=O)N2	–	–	–	–	–	< 6.00	< 6.00	< 6.00	–

Continued, in another order:

pIC50 [1]	pIC50 [2]	pIC50 [3]	pIC50 [4]	Structure (SMILES)	IC50 at 72 h [5] [nM]	pIC50 [6]	pIC50 [7]	pIC50 [8]	pIC50 [9]
5.68	< 5.00	5.76	6.00	COc1cc(N(C)CCN(C)C)c2cc1Nc1ncc(C)c(n1)Nc1ccc(cc1P(C)(C)=O)OCCCCCC2	> 10000	–	–	–	–
6.50	6.80	7.39	7.42	COc1cc(N2CCC(N3CCN(C)CC3)CC2)c2cc1Nc1ncc(C)c(n1)Nc1ccc(cc1P(C)(C)=O)OCCCn1cc-2cn1	2770	–	–	–	–
6.84	6.79	> 7.80	7.21	COc1cc(N2CCN(C)CC2)c2cc1Nc1ncc(C)c(n1)Nc1ccc(cc1P(C)(C)=O)OCCCn1cc-2cn1	2250	–	–	–	–
< 5.00	5.36	< 5.00	5.63	COc1cc(N(C)CCN(C)C)c2cc1Nc1ncc(C)c(n1)Nc1ccc(cc1P(C)(C)=O)OCCCCC(=O)N2	> 10000	–	–	–	–
6.40	< 5.00	6.76	6.98	COc1cc(N(C)CCN(C)C)c2cc1Nc1ncc(C)c(n1)Nc1ccc(cc1P(C)(C)=O)OCCCn1cc-2cn1	> 10000	–	–	–	–
